No end group written: not given here.
Key:
APC [1] = target: T1, APC (Homo sapiens, UniProt P04070); experiment: Xa-1-stage coagulation assay, inhibition of APC anticoagulant activity; type: biochemical; set-up: Protein C consists of a 155 amino acid residue light chain and a 262 amino acid residue heavy chain; from tissue; host or cells: human plasma factor IX concentrate; conditions: final peptide concentration 500 μM; NHP; 0 = no observable effect +10%
Description: For testing the inhibition of the synthetic peptides on APC activity described above, Xa-1-stage coagulation assays were also performed as described. See Seegers et al., Thrombosis Res., 13:233-243 (1978); Marlar et al., supra; and Walker et al., J. Biol. Chem., 265:1484-1489 (1990). PC heavy chain-derived peptides listed below in Table 6 and PC light chain-derived peptides listed below in Table 7 were prepared as described above and separately admixed for a final concentration of 2 mM with 120 nM APC in 100 μl of TBS-BSA at pH 7.4 to form separate peptide-APC admixtures. The resulting admixtures were maintained for ten minutes at 37° C. Separate aliquots of peptides maintained under the same conditions in the absence of APC served as controls for the inhibitory effect of synthetic peptides on APC anticoagulant activity. After the maintenance period, 100 μl of NHP and 100 μl of 200 μg/ml of rabbit brain cephalin (Sigma) were admixed into each peptide admixture and maintained for 200 seconds at 37° C. to form pre-coagulation admixtures. In some experiments, Factor VIII deficient plasma (George King Bio-Medical, Inc.) was used in the place of NHP to determine the effect of Factor VIII on the assay system. Coagulation was then initiated by the admixture of 100 μl of 0.62 nM human activated Factor X (Xa) (Enzyme Research Laboratories, Southbend, Ind.) in TBS-BSA containing 30 mM CaCl2 prewarmed to 37° C. to each of the pre-coagulation admixtures.
The time for clot formation was measured by an Electra 700 Automatic Coagulation Timer (Medical Laboratory Automation, Inc., Mount Vernon, N.Y.). Each peptide's effect was determined in duplicate. The results of the inhibition of APC anticoagulant activity by synthetic peptides as measured in Xa-1-stage coagulation assays are presented in Tables 6 and 7 below with the APTT assay results and are presented as the mean values obtained with APTT assays. Data for results with PC heavy chain-derived peptides are shown in Table 6 and data for results with PC light chain-derived peptides are shown in Table 7.
The results of inhibition of APC anticoagulant activity by PC light chain-derived peptides in a Xa-1 stage coagulation assay are shown in Table 7. The assay was performed in the presence of NHP. Peptides used in the assay were prepared as described in Example 1 and are listed in Table 7 by their corresponding residue positions in native PC protein (SEQ ID NO 1). For all peptides except PC142-155 used in the Xa-1 stage assays listed in Table 7, cysteine residues in the native PC amino acid residue sequence were substituted by either serine or glycine in the synthesized peptide. This was done to prevent multiple disulfide formation and subsequent potential polymerization among peptides with multiple cysteines. […]
Target sequence in this assay (P04070 43-197 limits assumed): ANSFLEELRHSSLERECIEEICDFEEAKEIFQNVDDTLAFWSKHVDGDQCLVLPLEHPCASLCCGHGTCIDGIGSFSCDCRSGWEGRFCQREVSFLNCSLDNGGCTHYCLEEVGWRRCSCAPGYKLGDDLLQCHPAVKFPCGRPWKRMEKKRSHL
Target sequence in this assay (P04070 212-450 limits assumed): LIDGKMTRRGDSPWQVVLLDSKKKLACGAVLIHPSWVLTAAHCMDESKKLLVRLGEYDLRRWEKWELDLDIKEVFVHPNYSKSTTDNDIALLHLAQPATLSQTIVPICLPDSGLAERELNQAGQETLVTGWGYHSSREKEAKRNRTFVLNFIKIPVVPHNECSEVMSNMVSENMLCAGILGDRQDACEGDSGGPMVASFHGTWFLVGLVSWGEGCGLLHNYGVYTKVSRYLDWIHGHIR

APC [2] = target: T1, APC; set-up: Protein C consists of a 155 amino acid residue light chain and a 262 amino acid residue heavy chain; from tissue; alpha1-AT mutant from Transgene, Strasbourg; conditions: Heeb et al. 1990; cited from earlier work
Target sequence in this assay (P04070 43-197): as the sequence (P04070 43-197 limits assumed) above
Target sequence in this assay (P04070 212-461): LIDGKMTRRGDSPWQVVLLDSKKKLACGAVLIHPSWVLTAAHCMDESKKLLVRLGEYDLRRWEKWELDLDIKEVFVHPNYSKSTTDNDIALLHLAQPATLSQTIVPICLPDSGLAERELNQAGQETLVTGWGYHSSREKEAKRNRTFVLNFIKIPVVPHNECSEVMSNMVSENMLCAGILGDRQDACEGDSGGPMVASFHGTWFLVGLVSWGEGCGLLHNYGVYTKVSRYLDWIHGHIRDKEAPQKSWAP

inhibition at 500 µM (APC [1]) [%] | Substance | increase in the association rate for APC by substitution of Met358 by Arg (APC [2])
66 | HPAVKFPSGRPWKRM-NH2 (C-terminus assumed) [PC134-148] | –
– | α1 -AT: recombinant mutant (Arg358)-α1-antitrypsin, macromolecular pseudo-substrate inhibitor of APC (Transgene) | over 4400 fold

— patent US5968751A, “Method for detecting the presence of protein C antibody in a fluid sample” (The Scripps Research Institute, priority 1997, dated 1999)
